The structures appear in SMILES notation.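 All cell lines were grown in 96-well plates and treated with compound for 48 hours. GI50: concentration for 50% inhibition of growth. TGI is the concentration that stops growth completely.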

What is called GI50 is the concentration giving 50% growth inhibition. By TGI is commonly meant the concentration at which net growth stops. Higher therefore signals lower sensitivity of the cells.

Among the test systems are A549 NSCLC; CCRF-CEM leukemia; IGROV1 ovarian; NCI-H23 lung; NCI/ADR-RES ovarian; RPMI-8226 leukemia; SK-MEL-5 melanoma; SW-620 colon; U251 CNS; UACC-62 melanoma.
Assay in all cases: DTP human tumour cell line panel, 48 h

In the case of `Nc1c(C(=O)c2cccc(CCC3(O)CCCC3)c2)cnn1-c1ccc(F)cc1`, the GI50 with A549 NSCLC is 12600 nM; in the experiment with CCRF-CEM leukemia, 18800 nM; with IGROV1 ovarian, greater than 25000 nM; in the experiment with NCI-H23 lung it was 14.6 µM; in the experiment with NCI/ADR-RES ovarian, 7.68 µM; in the experiment on RPMI-8226 leukemia, 9230 nM. For the same compound, the GI50 in the experiment on SK-MEL-5 melanoma was 4780 nM; in the experiment with SW-620 colon it was greater than 20700 nM; with U251 CNS it was 14.2 µM; with UACC-62 melanoma it was 12500 nM. Also, the TGI with A549 NSCLC, with CCRF-CEM leukemia, with IGROV1 ovarian, in the experiment on NCI-H23 lung, in the experiment with NCI/ADR-RES ovarian and in the experiment with RPMI-8226 leukemia was greater than 25 µM each time. In addition, the TGI in the experiment on SK-MEL-5 melanoma was 13.3 µM; in the experiment on SW-620 colon, greater than 25 µM; in the experiment with U251 CNS it was greater than 25 µM; in the experiment on UACC-62 melanoma, greater than 25 µM.
With `CN(C)C(=O)c1cc2cnc(Nc3ccc(-c4csc5c(=O)cc(N6CCNCC6)oc45)cc3)nc2n1C1CCCC1`, the GI50 with A549 NSCLC was 1160 nM; in the experiment on CCRF-CEM leukemia, 433 nM; with IGROV1 ovarian it was 523 nM; in the experiment with NCI-H23 lung, 0.995 µM; with NCI/ADR-RES ovarian, 6.9 µM; in the experiment on RPMI-8226 leukemia, 453 nM. The GI50 was 1180 nM in the experiment with SK-MEL-5 melanoma, 418 nM in the experiment on SW-620 colon, 0.561 µM in the experiment on U251 CNS and 1440 nM with UACC-62 melanoma. Besides, the TGI with A549 NSCLC turned out to be 3.81 µM; in the experiment with IGROV1 ovarian, 6.12 µM; in the experiment with NCI-H23 lung it was 2.93 µM; in the experiment with NCI/ADR-RES ovarian, 32.7 µM; with RPMI-8226 leukemia, 2.74 µM; in the experiment with SK-MEL-5 melanoma, 2.51 µM. Further, the TGI in the experiment on SW-620 colon worked out at 2.09 µM; in the experiment with U251 CNS, 1.96 µM; in the experiment with UACC-62 melanoma it was 8.69 µM.
On to `COc1ccc(-c2cc(-c3cn[nH]c3-c3ccccn3)ccn2)cc1`, for which the GI50 was greater than 25000 nM in the experiment on A549 NSCLC; greater than 25000 nM with CCRF-CEM leukemia; greater than 25000 nM with IGROV1 ovarian; greater than 25 µM in the experiment on NCI-H23 lung; greater than 25 µM with NCI/ADR-RES ovarian; greater than 25000 nM with RPMI-8226 leukemia. Moreover, the GI50 is greater than 25000 nM with SK-MEL-5 melanoma, greater than 25000 nM with SW-620 colon, greater than 25 µM with U251 CNS and greater than 25000 nM in the experiment on UACC-62 melanoma. Further, the TGI in the experiment with A549 NSCLC, in the experiment with CCRF-CEM leukemia, in the experiment on IGROV1 ovarian, in the experiment with NCI-H23 lung, in the experiment on NCI/ADR-RES ovarian and in the experiment with RPMI-8226 leukemia was greater than 25 µM in each case. The TGI in the experiment on SK-MEL-5 melanoma, in the experiment on SW-620 colon, in the experiment on U251 CNS and with UACC-62 melanoma was greater than 25 µM throughout.
Consider `Nc1nc(N)c2c(ccc3nccc32)[nH]1`, for which the GI50 is 755 nM in the experiment with A549 NSCLC; 1570 nM in the experiment on CCRF-CEM leukemia; 2340 nM in the experiment with IGROV1 ovarian; 6.46 µM in the experiment on NCI-H23 lung; 6.61 µM in the experiment on NCI/ADR-RES ovarian; 3730 nM with RPMI-8226 leukemia. Moreover, the GI50 in the experiment on SK-MEL-5 melanoma is 2280 nM; in the experiment with SW-620 colon, 1030 nM; in the experiment with U251 CNS it was 3.22 µM; in the experiment with UACC-62 melanoma, 2670 nM. Also, the TGI was greater than 100 µM with A549 NSCLC; greater than 100 µM in the experiment on CCRF-CEM leukemia; 9.35 µM in the experiment with IGROV1 ovarian; greater than 100 µM with NCI-H23 lung; greater than 100 µM in the experiment with NCI/ADR-RES ovarian; 21.7 µM in the experiment on RPMI-8226 leukemia. The TGI in the experiment with SK-MEL-5 melanoma is greater than 33.9 µM; in the experiment on SW-620 colon, greater than 77.3 µM; in the experiment on U251 CNS, greater than 69.5 µM; in the experiment on UACC-62 melanoma, 17.6 µM.
`CCCCCCCCCCCC[n+]1ccccc1`: the GI50 is 2020 nM in the experiment with A549 NSCLC; 1340 nM in the experiment on CCRF-CEM leukemia; 1000 nM in the experiment with IGROV1 ovarian; 0.488 µM with NCI-H23 lung; 14.9 µM with NCI/ADR-RES ovarian; 290 nM with RPMI-8226 leukemia. Moreover, the GI50 in the experiment with SK-MEL-5 melanoma is 1060 nM; in the experiment on SW-620 colon, 2000 nM; with U251 CNS, 0.997 µM; in the experiment on UACC-62 melanoma it was 1170 nM. The TGI in the experiment with A549 NSCLC is 5.16 µM; in the experiment on CCRF-CEM leukemia, 8.55 µM; in the experiment on IGROV1 ovarian, 2.85 µM; with NCI-H23 lung it was 5.67 µM; in the experiment with NCI/ADR-RES ovarian, 50.7 µM; in the experiment with RPMI-8226 leukemia, 1.67 µM. Also, the TGI in the experiment on SK-MEL-5 melanoma turned out to be 2.26 µM; in the experiment with SW-620 colon it was 10.5 µM; in the experiment on U251 CNS, 2.44 µM; in the experiment with UACC-62 melanoma, 2.81 µM.
For `Cc1cccc(NC(=O)CCl)c1`, the TGI with A549 NSCLC was greater than 10 µM; in the experiment on CCRF-CEM leukemia, 8.83 µM; in the experiment on IGROV1 ovarian, greater than 10 µM; in the experiment with NCI-H23 lung, greater than 10 µM; in the experiment on NCI/ADR-RES ovarian, greater than 10 µM; with RPMI-8226 leukemia it was greater than 10 µM. The TGI in the experiment with SK-MEL-5 melanoma is greater than 10 µM; in the experiment with SW-620 colon, greater than 10 µM; in the experiment with U251 CNS it was 5.64 µM; in the experiment with UACC-62 melanoma, greater than 10 µM.
For the compound `CN1CCN(Cc2ccc(NC(=O)c3nc4ccc5[nH]ncc5c4c4c3CCC4)cc2C(F)(F)F)CC1`, the GI50 with A549 NSCLC was 920 nM; with CCRF-CEM leukemia, 1250 nM; in the experiment with IGROV1 ovarian, 907 nM; in the experiment on NCI-H23 lung, 1.07 µM; in the experiment with NCI/ADR-RES ovarian, 0.931 µM; with RPMI-8226 leukemia, 1140 nM. The GI50 was 7470 nM in the experiment on SK-MEL-5 melanoma, 975 nM in the experiment with SW-620 colon, 0.875 µM in the experiment on U251 CNS and 1880 nM in the experiment on UACC-62 melanoma. Further, the TGI in the experiment with A549 NSCLC came to 1.83 µM; with CCRF-CEM leukemia, 3.64 µM; with IGROV1 ovarian it was 1.7 µM; in the experiment on NCI-H23 lung, 3.22 µM; in the experiment with NCI/ADR-RES ovarian, 2.14 µM; in the experiment on RPMI-8226 leukemia, 2.82 µM. Moreover, the TGI amounted to 14.1 µM in the experiment on SK-MEL-5 melanoma, 2.03 µM in the experiment with SW-620 colon, 1.6 µM in the experiment with U251 CNS and 6.94 µM in the experiment with UACC-62 melanoma.
For `CC[C@H](C)[C@H](NC(=O)Nc1ccccc1)C(=O)N(C)[C@H](C[C@@H](OC(C)=O)c1nc(C(=O)N[C@@H](Cc2ccccc2)C[C@H](C)C(=O)OC)cs1)C(C)C`, the GI50 is 7490 nM in the experiment on A549 NSCLC; 2250 nM in the experiment with CCRF-CEM leukemia; 3280 nM in the experiment on IGROV1 ovarian; 5.8 µM with NCI-H23 lung; 54.2 µM in the experiment with NCI/ADR-RES ovarian; 2030 nM in the experiment with RPMI-8226 leukemia. The GI50 in the experiment with SK-MEL-5 melanoma is 1730 nM; in the experiment on SW-620 colon, 3580 nM; in the experiment on U251 CNS, 3.16 µM; with UACC-62 melanoma, 1270 nM. For the same compound, the TGI in the experiment on A549 NSCLC, in the experiment on CCRF-CEM leukemia, in the experiment with IGROV1 ovarian, with NCI-H23 lung, in the experiment with NCI/ADR-RES ovarian and in the experiment on RPMI-8226 leukemia was greater than 100 µM in each case. The TGI is 12.4 µM with SK-MEL-5 melanoma, greater than 100 µM in the experiment with SW-620 colon, greater than 100 µM in the experiment with U251 CNS and greater than 100 µM in the experiment on UACC-62 melanoma.

The values above are taken from PubChem BioAssay (NCI).
